Data published in paper PMC12035560, “Structures of Mycobacterium tuberculosis isoprenyl diphosphate synthase Rv2173 in substrate-bound forms” (Acta Crystallographica Section F: Structural Biology …, 2025).

Target: T1, Rv2173 (Mycobacterium tuberculosis, UniProt O53507)
T1 construct: gene idsA2
T1 sequence (O53507 whole entry): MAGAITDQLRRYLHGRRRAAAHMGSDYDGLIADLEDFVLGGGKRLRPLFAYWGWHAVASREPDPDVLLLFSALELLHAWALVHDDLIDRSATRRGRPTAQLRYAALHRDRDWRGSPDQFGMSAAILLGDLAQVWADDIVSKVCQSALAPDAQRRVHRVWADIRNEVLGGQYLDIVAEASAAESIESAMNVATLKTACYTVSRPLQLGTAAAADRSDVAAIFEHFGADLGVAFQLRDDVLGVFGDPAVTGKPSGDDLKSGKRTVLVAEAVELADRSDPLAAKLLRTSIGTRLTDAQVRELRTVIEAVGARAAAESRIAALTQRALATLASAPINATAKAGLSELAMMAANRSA

## CC(C)=CCOP(=O)(O)OP(=O)(O)O [DMAPP]
  X-ray crystal structure, 2.20 A, co-crystallization: Two metal ions bind to the FARM, coordinating to the DMAPP bound in the allylic/DMAPP site
